Experimental data reported in US12156862B2, “Medicaments for the treatment of vasoconstriction related diseases or disorders” (Sulfateq B.V., priority 2017, dated 2024).

How the values were obtained:
[1] = molecular target: T1, human α1 adrenoceptor subtype B (Homo sapiens, UniProt P35368); assay: Phenylephrine-induced intracellular calcium (FLIPR Calcium 6) in CHO cells, α1B; assay type: cell-based; details: in words
T1 construct: expressed in transfected cells; host or cells: CHO-K1
T1 sequence (P35368 1-520): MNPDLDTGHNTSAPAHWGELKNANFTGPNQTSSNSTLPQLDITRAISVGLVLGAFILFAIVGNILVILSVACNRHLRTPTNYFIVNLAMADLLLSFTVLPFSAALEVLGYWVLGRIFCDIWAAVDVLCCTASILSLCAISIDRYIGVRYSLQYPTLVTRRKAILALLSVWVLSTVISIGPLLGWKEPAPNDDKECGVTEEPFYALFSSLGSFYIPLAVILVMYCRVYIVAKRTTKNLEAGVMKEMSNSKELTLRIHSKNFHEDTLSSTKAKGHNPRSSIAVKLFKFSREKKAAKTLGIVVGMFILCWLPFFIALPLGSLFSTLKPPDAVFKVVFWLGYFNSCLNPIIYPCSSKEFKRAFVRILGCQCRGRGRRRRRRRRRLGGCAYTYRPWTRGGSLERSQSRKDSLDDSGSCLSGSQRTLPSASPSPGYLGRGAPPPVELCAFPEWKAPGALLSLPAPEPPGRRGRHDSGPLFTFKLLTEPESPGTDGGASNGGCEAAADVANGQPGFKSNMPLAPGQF
Experimental: (§1) CHO-K1 cells were stably transfected with a plasmid containing human al-AR subtypes A, B and D in separate cell lines in DMEM-F12 medium with 10% FBS, 1% penicillin-streptomycin and 200 μg/mL Geneticin (G418, Invitrogen, Carlsbad, CA).
(§2) On the next day, CHO cells were treated with either vehicle (0.1% DMSO) or SUL-121 enantiomers for 30 min at 37° C. and stimulated with a 3-fold dilution series of PE (20 μM-100 pM). [Ca^2], was measured using the fluorescent FLIPR Calcium 6 assay kit (Molecular Devices) in immortalized CHO cells stably expressing the α1 adrenoceptor.
(§3) Initially, calcium responses induced by non-cumulative concentration series of phenylephrine were investigated using fluorescent measurements in α1A adrenoceptor-overexpressing CHO cells treated with SUL-150 and SUL-151 (FIG. 4). Fluorescent measurement data was processed and analyzed in SoftMax Pro 7 and expressed as % of baseline AUC with a 3-fold multiplier using an average of first 10 measurement points as baseline.

α1 adrenoceptor = assay: Phenylephrine-induced constriction of isolated porcine intrarenal arteries (myography)
Experimental: Porcine kidneys were obtained from a local slaughterhouse (Kroon Vlees, Gotenburgweg 30, 9723 TM Groningen. The Netherlands) and transported on ice in normal physiological Krebs buffer containing 120 mM NaCl, 6 mM KCl, 2.5 mM CaCl2×2H2O, 1.2 mM MgCl2×6H2O, 1.2 mM NaH2PO4×H2O, 25 mM NaHCO3 and 11.4 mM D-(+)-Glucose monohydrate (all ingredients were purchased from Merck) in ultrapure water.
The renal artery tree was dissected from the kidney, cleaned of surrounding connective tissue and cut into equally-sized ring segments (2 mm in length). In some rings, endothelium denudation was performed by gentle rubbing of the intimal surface with a paper clip. Rings were mounted in organ baths as described previously (Buikema et al., 2000). Arterial rings were washed thoroughly by replacing Krebs buffer and allowed to equilibrate for a period of 60 min under 1.4 g of resting tension before they were assessed for viability by inducing 2 subsequent constrictions with KCl (60 mM). […] After washout and stabilization, rings were treated for 30 minutes by incubation with vehicle (0.1% DMSO), SUL-121, SUL-150 or SUL-151, followed by subsequent incubation with cumulative doses of phenylephrine.
Dose-dependent constriction responses to phenylephrine (10^−8M-10^−4M) were recorded in said isolated porcine intrarenal arteries. Buffer was warmed to 37° C. and aerated with 95% O2 and 5% CO2 before use.
Vascular constriction responses are expressed as percentage of final response to KCl. Data are expressed as mean±SEM. *p<0.05.
To explore the effects of the enantiomers of (6-hydroxy-2,5,7,8-tetramethylchroman-2-yl)(piperazin-1-yl)methanone (SUL-150 and SUL-151) on constriction of isolated porcine intrarenal arteries, cumulative dose response curves to the α1 adrenoceptor agonist phenylephrine (PE) were constructed in the presence and absence of SUL-150 and SUL-151.

[2] = molecular target: T2, human α1 adrenoceptor subtype D (Homo sapiens, UniProt P25100); assay: Phenylephrine-induced intracellular calcium (FLIPR Calcium 6) in CHO cells, α1D; assay type: cell-based; details: in words
T2 construct: expressed in transfected cells; host or cells: CHO-K1
T2 sequence (P25100 1-572): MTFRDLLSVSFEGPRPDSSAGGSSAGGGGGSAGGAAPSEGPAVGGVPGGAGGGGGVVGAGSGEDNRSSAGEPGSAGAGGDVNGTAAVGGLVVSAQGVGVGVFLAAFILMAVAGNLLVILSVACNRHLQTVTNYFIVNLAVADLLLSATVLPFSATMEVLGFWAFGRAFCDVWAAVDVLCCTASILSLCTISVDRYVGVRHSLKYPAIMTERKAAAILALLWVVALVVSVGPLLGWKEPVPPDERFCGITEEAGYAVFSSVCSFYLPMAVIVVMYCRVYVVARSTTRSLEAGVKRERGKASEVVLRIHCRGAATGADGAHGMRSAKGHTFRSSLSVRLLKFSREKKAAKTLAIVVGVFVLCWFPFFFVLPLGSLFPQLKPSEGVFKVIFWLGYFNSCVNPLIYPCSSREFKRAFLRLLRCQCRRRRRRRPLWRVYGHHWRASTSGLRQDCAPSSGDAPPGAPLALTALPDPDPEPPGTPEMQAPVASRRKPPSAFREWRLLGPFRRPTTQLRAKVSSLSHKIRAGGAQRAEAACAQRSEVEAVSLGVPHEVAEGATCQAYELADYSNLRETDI
Experimental: as §1, §2, §3

[3] = molecular target: T3, human α1 adrenoceptor subtype A (Homo sapiens, UniProt P35348); assay: Phenylephrine-induced intracellular calcium (FLIPR Calcium 6) in CHO cells, α1A; assay type: cell-based
T3 construct: expressed in transfected cells; host or cells: CHO-K1
T3 sequence (P35348 1-466): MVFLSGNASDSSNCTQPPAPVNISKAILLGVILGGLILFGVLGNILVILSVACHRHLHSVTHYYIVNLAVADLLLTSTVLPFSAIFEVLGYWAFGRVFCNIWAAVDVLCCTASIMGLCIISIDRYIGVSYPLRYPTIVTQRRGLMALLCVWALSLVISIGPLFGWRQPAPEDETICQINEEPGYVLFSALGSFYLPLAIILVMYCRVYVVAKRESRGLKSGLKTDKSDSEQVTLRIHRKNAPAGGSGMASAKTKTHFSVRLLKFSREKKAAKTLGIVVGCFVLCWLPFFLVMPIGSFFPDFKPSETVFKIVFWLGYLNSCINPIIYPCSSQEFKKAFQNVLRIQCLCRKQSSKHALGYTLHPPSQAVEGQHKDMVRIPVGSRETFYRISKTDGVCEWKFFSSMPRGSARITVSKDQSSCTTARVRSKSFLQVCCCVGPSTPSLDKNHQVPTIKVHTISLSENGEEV
Experimental: as §1, §2, §3

α1A adrenoceptor = molecular target: T4, α1A adrenoceptor (Homo sapiens, UniProt P35348); assay: Radiolabeled prazosin displacement binding assay in α1A adrenoceptor transgenic CHO cells
T4 construct: expressed in transfected cells; host or cells: CHO-K1
T4 sequence (P35348 1-466): T3 sequence (P35348 1-466)
Description: We therefore explored whether SUL-150 could directly interact with the α1 adrenoceptor as a receptor antagonist.

Cc1c(C)c2c(c(C)c1O)CCC(C)(C(=O)N1CCNCC1)O2 (stereo not shown) [SUL-151, (6-hydroxy-2,5,7,8-tetramethylchroman-2-yl)(piperazin-1-yl)methanone]
effect on PE-induced calcium transients, α1 adrenoceptor subtype B [1]: did not affect calcium transients
logEC50 of phenylephrine-induced constriction responses (α1 adrenoceptor; 10 μM test compound): −5.82 ± 0.05^
logEC50 of phenylephrine-induced constriction responses (α1 adrenoceptor; 30 μM test compound): −5.89 ± 0.04
logEC50 of phenylephrine-induced constriction responses (α1 adrenoceptor; 100 μM test compound): −5.77 ± 0.04^
effect on PE-induced calcium transients, α1 adrenoceptor subtype D [2]: did not affect calcium transients
logEC50 of phenylephrine-induced calcium influx, α1A ([3]; 10 μM test compound): −8.09 ± 0.10
logEC50 of phenylephrine-induced calcium influx, α1A ([3]; 30 μM test compound): −8.09 ± 0.11
logEC50 of phenylephrine-induced calcium influx, α1A ([3]; 100 μM test compound): −7.98 ± 0.10
effect on PE-induced calcium transients, α1 adrenoceptor subtype A ([3]; in words): did not affect calcium transients
concentrations at which [7-Methoxy-3H]-prazosin is displaced (α1A adrenoceptor): higher than 10 μM
